Test results as given in ChEMBL document CHEMBL4138146, “A Schmidt rearrangement-mediated synthesis of novel tetrahydro-benzo[1,4]diazepin-5-ones as potential anticancer and antiprotozoal agents” (Eur J Med Chem, 2017).

How the values were obtained:
Format in all cases: functional
[1] = system: HCT-15; assay: Growth inhibition of human HCT15 cells assessed as cell growth at 10^-5 M incubated for 48 hrs by sulforhodamine B assay relative to control; details: HCT-15, 48 h, read-out: Activity
[2] = system: SF-539; assay: Growth inhibition of human SF539 cells assessed as cell growth at 10^-7 M incubated for 48 hrs by sulforhodamine B assay relative to control; details: SF-539, 48 h, read-out: Activity
[3] = system: HOP-62; assay: Growth inhibition of human HOP62 cells assessed as cell growth at 10^-5 M incubated for 48 hrs by sulforhodamine B assay relative to control; details: HOP-62, 48 h, read-out: Activity
[4] = system: ACHN; assay: Growth inhibition of human ACHN cells assessed as cell growth at 10^-7 M incubated for 48 hrs by sulforhodamine B assay relative to control; details: read-out: Activity
[5] = system: 786-0; assay: Growth inhibition of human 786-0 cells assessed as cell growth at 10^-8 M incubated for 48 hrs by sulforhodamine B assay relative to control; details: 786-0, 48 h, read-out: Activity
[6] = system: OVCAR-3; assay: Growth inhibition of human OVCAR3 cells assessed as cell growth at 10^-8 M incubated for 48 hrs by sulforhodamine B assay relative to control; details: OVCAR-3, 48 h, read-out: Activity
[7] = system: COLO 205; assay: Growth inhibition of human COLO205 cells assessed as cell growth at 10^-7 M incubated for 48 hrs by sulforhodamine B assay relative to control; details: COLO 205, 48 h, read-out: Activity
[8] = system: OVCAR-4; assay: Growth inhibition of human OVCAR4 cells assessed as cell growth at 10^-5 M incubated for 48 hrs by sulforhodamine B assay relative to control; details: OVCAR-4, 48 h, read-out: Activity
[9] = system: BT-549; assay: Growth inhibition of human BT549 cells assessed as cell growth at 10^-7 M incubated for 48 hrs by sulforhodamine B assay relative to control; details: BT-549, 48 h, read-out: Activity
[10] = system: HOP-92; assay: Growth inhibition of human HOP92 cells assessed as cell growth at 10^-7 M incubated for 48 hrs by sulforhodamine B assay relative to control; details: HOP-92, 48 h, read-out: Activity
[11] = system: MDA-MB-231; assay: Growth inhibition of human MDA-MB-231 cells assessed as cell growth at 10^-8 M incubated for 48 hrs by sulforhodamine B assay relative to control; details: MDA-MB-231, 48 h, read-out: Activity
[12] = system: HT-29; assay: Growth inhibition of human HT-29 cells assessed as cell growth at 10^-8 M incubated for 48 hrs by sulforhodamine B assay relative to control; details: HT-29, 48 h, read-out: Activity
[13] = system: NCI-H460; assay: Growth inhibition of human NCI-H460 cells assessed as cell growth at 10^-6 M incubated for 48 hrs by sulforhodamine B assay relative to control; details: NCI-H460, 48 h, read-out: Activity
[14] = system: BT-549; assay: Growth inhibition of human BT549 cells assessed as cell growth at 10^-8 M incubated for 48 hrs by sulforhodamine B assay relative to control; details: BT-549, 48 h, read-out: Activity
[15] = system: RPMI-8226; assay: Growth inhibition of human RPMI8226 cells assessed as cell growth at 10^-5 M incubated for 48 hrs by sulforhodamine B assay relative to control; details: RPMI-8226, 48 h, read-out: Activity
[16] = system: SR; assay: Growth inhibition of human SR cells assessed as cell growth at 10^-5 M incubated for 48 hrs by sulforhodamine B assay relative to control; details: read-out: Activity
[17] = system: OVCAR-4; assay: Growth inhibition of human OVCAR4 cells assessed as cell growth at 10^-8 M incubated for 48 hrs by sulforhodamine B assay relative to control; details: OVCAR-4, 48 h, read-out: Activity
[18] = system: 786-0; assay: Growth inhibition of human 786-0 cells assessed as cell growth at 10^-7 M incubated for 48 hrs by sulforhodamine B assay relative to control; details: 786-0, 48 h, read-out: Activity
[19] = system: K562; assay: Growth inhibition of human K562 cells assessed as cell growth at 10^-6 M incubated for 48 hrs by sulforhodamine B assay relative to control; details: K562, 48 h, read-out: Activity
[20] = system: SF-295; assay: Growth inhibition of human SF295 cells assessed as cell growth at 10^-7 M incubated for 48 hrs by sulforhodamine B assay relative to control; details: SF-295, 48 h, read-out: Activity
[21] = system: PC-3; assay: Growth inhibition of human PC3 cells assessed as cell growth at 10^-8 M incubated for 48 hrs by sulforhodamine B assay relative to control; details: PC-3, 48 h, read-out: Activity
[22] = system: UACC-257; assay: Growth inhibition of human UACC257 cells assessed as cell growth at 10^-5 M incubated for 48 hrs by sulforhodamine B assay relative to control; details: UACC-257, 48 h, read-out: Activity
[23] = system: HT-29; assay: Growth inhibition of human HT-29 cells assessed as cell growth at 10^-6 M incubated for 48 hrs by sulforhodamine B assay relative to control; details: HT-29, 48 h, read-out: Activity
[24] = system: A498; assay: Growth inhibition of human A498 cells assessed as cell growth at 10^-8 M incubated for 48 hrs by sulforhodamine B assay relative to control; details: A498, 48 h, read-out: Activity
[25] = system: UACC-257; assay: Growth inhibition of human UACC257 cells assessed as cell growth at 10^-6 M incubated for 48 hrs by sulforhodamine B assay relative to control; details: UACC-257, 48 h, read-out: Activity
[26] = system: SK-MEL-28; assay: Growth inhibition of human SK-MEL-28 cells assessed as cell growth at 10^-6 M incubated for 48 hrs by sulforhodamine B assay relative to control; details: SK-MEL-28, 48 h, read-out: Activity
[27] = system: Malme-3M; assay: Growth inhibition of human MALME-3M cells assessed as cell growth at 10^-5 M incubated for 48 hrs by sulforhodamine B assay relative to control; details: read-out: Activity
[28] = system: SK-MEL-5; assay: Growth inhibition of human SK-MEL-5 cells assessed as cell growth at 10^-4 M incubated for 48 hrs by sulforhodamine B assay relative to control; details: SK-MEL-5, 48 h, read-out: Activity
[29] = system: NCI-H322M; assay: Growth inhibition of human NCI-H322M cells assessed as cell growth at 10^-7 M incubated for 48 hrs by sulforhodamine B assay relative to control; details: read-out: Activity
[30] = system: DU-145; assay: Growth inhibition of human DU145 cells assessed as cell growth at 10^-8 M incubated for 48 hrs by sulforhodamine B assay relative to control; details: DU-145, 48 h, read-out: Activity
[31] = system: NCI-H23; assay: Growth inhibition of human NCI-H23 cells assessed as cell growth at 10^-7 M incubated for 48 hrs by sulforhodamine B assay relative to control; details: NCI-H23, 48 h, read-out: Activity
[32] = system: SF-539; assay: Growth inhibition of human SF539 cells assessed as cell growth at 10^-5 M incubated for 48 hrs by sulforhodamine B assay relative to control; details: SF-539, 48 h, read-out: Activity
[33] = system: OVCAR-3; assay: Growth inhibition of human OVCAR3 cells assessed as cell growth at 10^-7 M incubated for 48 hrs by sulforhodamine B assay relative to control; details: OVCAR-3, 48 h, read-out: Activity
[34] = system: NCI-H460; assay: Growth inhibition of human NCI-H460 cells assessed as cell growth at 10^-7 M incubated for 48 hrs by sulforhodamine B assay relative to control; details: NCI-H460, 48 h, read-out: Activity

SMILES: CCCCOc1nc2ccccc2cc1C1CNC(=O)c2ccccc2N1 (centres undefined)
- growth at 10 µM [1]: 3%
- growth at 0.1 µM [2]: 93%
- growth at 10 µM [3]: 19%
- growth at 0.1 µM [4]: 98%
- growth at 0.01 µM [5]: 99%
- growth at 0.01 µM [6]: 100%
- growth at 0.1 µM [7]: 95%
- growth at 10 µM [8]: 37%
- growth at 0.1 µM [9]: 104%
- growth at 0.1 µM [10]: 80%
- growth at 0.01 µM [11]: 98%
- growth at 0.01 µM [12]: 94%
- growth at 1 µM [13]: 94%
- growth at 0.01 µM [14]: 105%
- growth at 10 µM [15]: 9%
- growth at 10 µM [16]: 1%
- growth at 0.01 µM [17]: 92%
- growth at 0.1 µM [18]: 100%
- growth at 1 µM [19]: 46%
- growth at 0.1 µM [20]: 88%
- growth at 0.01 µM [21]: 96%
- growth at 10 µM [22]: 48%
- growth at 1 µM [23]: 98%
- growth at 0.01 µM [24]: 82%
- growth at 1 µM [25]: 70%
- growth at 1 µM [26]: 71%
- growth at 10 µM [27]: 41%
- growth at 100 µM [28]: -24%
- growth at 0.1 µM [29]: 95%
- growth at 0.01 µM [30]: 101%
- growth at 0.1 µM [31]: 95%
- growth at 10 µM [32]: -12%
- growth at 0.1 µM [33]: 98%
- growth at 0.1 µM [34]: 102%
